Assay results as given in ChEMBL document CHEMBL1201862, “PubChem BioAssay data set” (2004).
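Dose response: 5 concentrations. Exposure: 48 h. Format: 96-well plates. Endpoint: linear interpolation; highest concentration if not reached. Abbreviation: GI50, concentration required for 50% inhibition of growth.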 The source made the active and inactive calls. No stated cut-off is given here; in the data, active = GI50 up to about 1.1 µM and inactive = higher.

Legend:
Test in all cases: inhibition of tumour cell growth, NCI panel, 48 h
OVCAR-4 = tested on: OVCAR-4
SK-MEL-2 = tested on: SK-MEL-2
Hs-578T = tested on: Hs-578T
SF-539 = tested on: SF-539
786-0 = tested on: 786-0
NCI-H23 = tested on: NCI-H23
CAKI-1 = tested on: CAKI-1
UO-31 = tested on: UO-31
MDA-N = tested on: MDA-N
SK-MEL-5 = tested on: SK-MEL-5
U-251 = tested on: U-251
RXF 393 = tested on: RXF 393
SF-268 = tested on: SF-268
UACC-62 = tested on: UACC-62
SN12C = tested on: SN12C
SK-OV-3 = tested on: SK-OV-3
MOLT-4 = tested on: MOLT-4
OVCAR-5 = tested on: OVCAR-5
OVCAR-3 = tested on: OVCAR-3
EKVX = tested on: EKVX
DU-145 = tested on: DU-145
SK-MEL-28 = tested on: SK-MEL-28
A498 = tested on: A498
NCI-H522 = tested on: NCI-H522
MCF7 = tested on: MCF7
SNB-75 = tested on: SNB-75
KM12 = tested on: KM12
BT-549 = tested on: BT-549
HCT-15 = tested on: HCT-15
HOP-92 = tested on: HOP-92
TK-10 = tested on: TK-10
NCI/ADR-RES = tested on: NCI/ADR-RES
SR = tested on: SR
MDA-MB-435 = tested on: MDA-MB-435
MDA-MB-231 = tested on: MDA-MB-231
IGROV-1 = tested on: IGROV-1
OVCAR-8 = tested on: OVCAR-8
NCI-H226 = tested on: NCI-H226
SW-620 = tested on: SW-620
T47D = tested on: T47D
PC-3 = tested on: PC-3
ACHN = tested on: ACHN
M14 = tested on: M14
UACC-257 = tested on: UACC-257
SF-295 = tested on: SF-295
A549 = tested on: A549
LOX IMVI = tested on: LOX IMVI
HCC 2998 = tested on: HCC 2998
CCRF-CEM = tested on: CCRF-CEM
HT-29 = tested on: HT-29
HOP-62 = tested on: HOP-62
SNB-19 = tested on: SNB-19
HCT-116 = tested on: HCT-116
NCI-H460 = tested on: NCI-H460
HL-60 = tested on: HL-60
RPMI-8226 = tested on: RPMI-8226
Malme-3M = tested on: Malme-3M
COLO 205 = tested on: COLO 205
K562 = tested on: K562

SMILES: Oc1cc(Br)cc2cc(Cl)cnc12
- GI50 (OVCAR-4): 1000 nM (active)
- GI50 (SK-MEL-2): 22300 nM (inactive)
- GI50 (Hs-578T): 845 nM (active)
- GI50 (SF-539): 3190 nM (inactive)
- GI50 (786-0): 8710 nM (inactive)
- GI50 (NCI-H23): 5470 nM (inactive)
- GI50 (CAKI-1): 7550 nM (inactive)
- GI50 (UO-31): 1480 nM (inactive)
- GI50 (MDA-N): 3450 nM (inactive)
- GI50 (SK-MEL-5): 1710 nM (inactive)
- GI50 (U-251): 1560 nM (inactive)
- GI50 (RXF 393): 1950 nM (inactive)
- GI50 (SF-268): 893 nM (active)
- GI50 (UACC-62): 2080 nM (inactive)
- GI50 (SN12C): 3130 nM (inactive)
- GI50 (SK-OV-3): 30200 nM (inactive)
- GI50 (MOLT-4): 1550 nM (inactive)
- GI50 (OVCAR-5): 18700 nM (inactive)
- GI50 (OVCAR-3): 1950 nM (inactive)
- GI50 (EKVX): 3990 nM (inactive)
- GI50 (DU-145): 4560 nM (inactive)
- GI50 (SK-MEL-28): 3290 nM (inactive)
- GI50 (A498): 8260 nM (inactive)
- GI50 (NCI-H522): 2350 nM (inactive)
- GI50 (MCF7): 3330 nM (inactive)
- GI50 (SNB-75): 8200 nM (inactive)
- GI50 (KM12): 4060 nM (inactive)
- GI50 (BT-549): 2440 nM (inactive)
- GI50 (HCT-15): 665 nM
- GI50 (HOP-92): 23400 nM (inactive)
- GI50 (TK-10): 28500 nM (inactive)
- GI50 (NCI/ADR-RES): 1210 nM (inactive)
- GI50 (SR): 1110 nM (active)
- GI50 (MDA-MB-435): 3300 nM (inactive)
- GI50 (MDA-MB-231): 20800 nM (inactive)
- GI50 (IGROV-1): 1260 nM (inactive)
- GI50 (OVCAR-8): 2450 nM (inactive)
- GI50 (NCI-H226): 16300 nM (inactive)
- GI50 (SW-620): 2830 nM (inactive)
- GI50 (T47D): 3210 nM (inactive)
- GI50 (PC-3): 3590 nM (inactive)
- GI50 (ACHN): 1950 nM (inactive)
- GI50 (M14): 1350 nM (inactive)
- GI50 (UACC-257): 3270 nM (inactive)
- GI50 (SF-295): 2080 nM (inactive)
- GI50 (A549): 2060 nM (inactive)
- GI50 (LOX IMVI): 635 nM (active)
- GI50 (HCC 2998): 17800 nM (inactive)
- GI50 (CCRF-CEM): 1530 nM (inactive)
- GI50 (HT-29): 11000 nM (inactive)
- GI50 (HOP-62): 4840 nM (inactive)
- GI50 (SNB-19): 3110 nM (inactive)
- GI50 (HCT-116): 1660 nM (inactive)
- GI50 (NCI-H460): 1090 nM (active)
- GI50 (HL-60): 463 nM (active)
- GI50 (RPMI-8226): 2540 nM (inactive)
- GI50 (Malme-3M): 2520 nM (inactive)
- GI50 (COLO 205): 21400 nM (inactive)
- GI50 (K562): 627 nM (active)

SMILES: CN(C)CCn1c(=O)c2ccc3c4c(nn3CCN(C)C)c3ccccc3n(c1=O)c24
- GI50 (OVCAR-4): 141 nM (active)
- GI50 (SK-MEL-2): 423 nM (active)
- GI50 (Hs-578T): 526 nM (active)
- GI50 (SF-539): 571 nM (active)
- GI50 (786-0): < 121 nM (active)
- GI50 (NCI-H23): 449 nM (active)
- GI50 (CAKI-1): 60.8 nM (active)
- GI50 (UO-31): 271 nM (active)
- GI50 (MDA-N): 248 nM (active)
- GI50 (SK-MEL-5): 728 nM (active)
- GI50 (U-251): 196 nM (active)
- GI50 (RXF 393): 275 nM (active)
- GI50 (SF-268): 211 nM (active)
- GI50 (UACC-62): 564 nM (active)
- GI50 (SN12C): 148 nM (active)
- GI50 (SK-OV-3): 412 nM (active)
- GI50 (MOLT-4): < 10 nM (active)
- GI50 (OVCAR-5): 485 nM (active)
- GI50 (OVCAR-3): 431 nM (active)
- GI50 (EKVX): < 11.3 nM (active)
- GI50 (DU-145): 208 nM (active)
- GI50 (SK-MEL-28): 1850 nM (inactive)
- GI50 (A498): 301 nM (active)
- GI50 (NCI-H522): < 21.9 nM (active)
- GI50 (MCF7): 188 nM (active)
- GI50 (SNB-75): < 14.6 nM (active)
- GI50 (KM12): 205 nM (active)
- GI50 (BT-549): 1840 nM (inactive)
- GI50 (HCT-15): < 125 nM
- GI50 (HOP-92): 1870 nM (inactive)
- GI50 (TK-10): 578 nM (active)
- GI50 (NCI/ADR-RES): 368 nM (active)
- GI50 (SR): < 127 nM (active)
- GI50 (MDA-MB-435): 230 nM (active)
- GI50 (MDA-MB-231): 637 nM (active)
- GI50 (OVCAR-8): < 10 nM (active)
- GI50 (NCI-H226): 506 nM (active)
- GI50 (SW-620): < 138 nM (active)
- GI50 (T47D): 524 nM (active)
- GI50 (PC-3): 351 nM (active)
- GI50 (ACHN): < 129 nM (active)
- GI50 (M14): 411 nM (active)
- GI50 (UACC-257): 1120 nM (inactive)
- GI50 (SF-295): 29.2 nM (active)
- GI50 (A549): 134 nM (active)
- GI50 (LOX IMVI): 214 nM (active)
- GI50 (HCC 2998): 129 nM (active)
- GI50 (CCRF-CEM): 178 nM (active)
- GI50 (HT-29): < 123 nM (active)
- GI50 (HOP-62): 164 nM (active)
- GI50 (SNB-19): 313 nM (active)
- GI50 (HCT-116): 193 nM (active)
- GI50 (NCI-H460): < 122 nM (active)
- GI50 (HL-60): 598 nM (active)
- GI50 (Malme-3M): 887 nM (active)
- GI50 (COLO 205): 201 nM (active)
- GI50 (K562): 146 nM (active)

SMILES: N#Cc1c(C#N)c(-c2cccc([N+](=O)[O-])c2)n(-c2ccccc2)c1N
- GI50 (OVCAR-4): 11500 nM (inactive)
- GI50 (SK-MEL-2): > 100000 nM (inactive)
- GI50 (Hs-578T): 55100 nM (inactive)
- GI50 (SF-539): 21100 nM (inactive)
- GI50 (786-0): 51500 nM (inactive)
- GI50 (NCI-H23): > 100000 nM (inactive)
- GI50 (CAKI-1): 44400 nM (inactive)
- GI50 (UO-31): > 100000 nM (inactive)
- GI50 (MDA-N): > 100000 nM (inactive)
- GI50 (SK-MEL-5): > 100000 nM (inactive)
- GI50 (U-251): 44800 nM (inactive)
- GI50 (RXF 393): 41700 nM (inactive)
- GI50 (SF-268): 88700 nM (inactive)
- GI50 (UACC-62): 66100 nM (inactive)
- GI50 (SN12C): > 100000 nM (inactive)
- GI50 (SK-OV-3): 96200 nM (inactive)
- GI50 (MOLT-4): > 100000 nM (inactive)
- GI50 (OVCAR-5): > 100000 nM (inactive)
- GI50 (OVCAR-3): > 100000 nM (inactive)
- GI50 (EKVX): > 100000 nM (inactive)
- GI50 (DU-145): > 100000 nM (inactive)
- GI50 (A498): 17800 nM (inactive)
- GI50 (NCI-H522): > 100000 nM (inactive)
- GI50 (MCF7): > 100000 nM (inactive)
- GI50 (SNB-75): 3330 nM (inactive)
- GI50 (KM12): > 100000 nM (inactive)
- GI50 (BT-549): 5110 nM (inactive)
- GI50 (HCT-15): > 100000 nM
- GI50 (HOP-92): 17800 nM (inactive)
- GI50 (TK-10): > 100000 nM (inactive)
- GI50 (NCI/ADR-RES): > 100000 nM (inactive)
- GI50 (SR): > 100000 nM (inactive)
- GI50 (MDA-MB-435): > 100000 nM (inactive)
- GI50 (MDA-MB-231): 38700 nM (inactive)
- GI50 (IGROV-1): 89100 nM (inactive)
- GI50 (OVCAR-8): 99300 nM (inactive)
- GI50 (NCI-H226): 18000 nM (inactive)
- GI50 (SW-620): > 100000 nM (inactive)
- GI50 (T47D): > 100000 nM (inactive)
- GI50 (PC-3): > 100000 nM (inactive)
- GI50 (ACHN): > 100000 nM (inactive)
- GI50 (M14): > 100000 nM (inactive)
- GI50 (UACC-257): > 100000 nM (inactive)
- GI50 (SF-295): 63200 nM (inactive)
- GI50 (A549): 33800 nM (inactive)
- GI50 (LOX IMVI): > 100000 nM (inactive)
- GI50 (HCC 2998): > 100000 nM (inactive)
- GI50 (CCRF-CEM): > 100000 nM (inactive)
- GI50 (HT-29): > 100000 nM (inactive)
- GI50 (HOP-62): 49400 nM (inactive)
- GI50 (SNB-19): 46800 nM (inactive)
- GI50 (HCT-116): > 100000 nM (inactive)
- GI50 (HL-60): > 100000 nM (inactive)
- GI50 (RPMI-8226): > 100000 nM (inactive)
- GI50 (Malme-3M): > 100000 nM (inactive)
- GI50 (COLO 205): > 100000 nM (inactive)
- GI50 (K562): > 100000 nM (inactive)
